From ChEMBL document CHEMBL1152560, “Substituted 2-arylbenzothiazoles as kinase inhibitors: hit-to-lead optimization” (Bioorg Med Chem, 2009)

What was measured:
[1] = target: Casein kinase I isoform epsilon (Homo sapiens) (UniProt P49674); test: Residual activity of CK1epsilon at 1 uM by microplate scintillation counting
[2] = target: T1, Serine/threonine-protein kinase 3 (Homo sapiens) (UniProt Q13188); test: Residual activity of MST2 at 10 uM by microplate scintillation counting
T1 sequence (whole entry): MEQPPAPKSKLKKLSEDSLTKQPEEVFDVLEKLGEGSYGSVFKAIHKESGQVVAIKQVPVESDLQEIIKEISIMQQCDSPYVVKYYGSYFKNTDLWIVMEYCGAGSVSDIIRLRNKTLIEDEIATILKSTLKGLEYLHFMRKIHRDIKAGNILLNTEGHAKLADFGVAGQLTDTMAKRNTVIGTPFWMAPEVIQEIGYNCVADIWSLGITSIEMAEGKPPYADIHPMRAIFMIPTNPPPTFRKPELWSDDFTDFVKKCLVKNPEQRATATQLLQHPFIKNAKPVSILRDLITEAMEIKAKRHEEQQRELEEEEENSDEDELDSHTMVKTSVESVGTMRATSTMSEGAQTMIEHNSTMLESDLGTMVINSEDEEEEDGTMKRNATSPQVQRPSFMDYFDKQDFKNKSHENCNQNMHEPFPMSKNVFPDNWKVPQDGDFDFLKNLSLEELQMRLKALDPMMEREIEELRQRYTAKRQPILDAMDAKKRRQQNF

[3] = tested on: Tyrosine-protein kinase ABL1 (Homo sapiens), P00519 [T315I]; test: Residual activity of ABL1 T315I mutant at 10 uM by microplate scintillation counting
[4] = target: T2, Dual specificity protein kinase TTK (Homo sapiens) (UniProt P33981); test: Residual activity of TTK at 0.1 uM by microplate scintillation counting
T2 sequence (whole entry): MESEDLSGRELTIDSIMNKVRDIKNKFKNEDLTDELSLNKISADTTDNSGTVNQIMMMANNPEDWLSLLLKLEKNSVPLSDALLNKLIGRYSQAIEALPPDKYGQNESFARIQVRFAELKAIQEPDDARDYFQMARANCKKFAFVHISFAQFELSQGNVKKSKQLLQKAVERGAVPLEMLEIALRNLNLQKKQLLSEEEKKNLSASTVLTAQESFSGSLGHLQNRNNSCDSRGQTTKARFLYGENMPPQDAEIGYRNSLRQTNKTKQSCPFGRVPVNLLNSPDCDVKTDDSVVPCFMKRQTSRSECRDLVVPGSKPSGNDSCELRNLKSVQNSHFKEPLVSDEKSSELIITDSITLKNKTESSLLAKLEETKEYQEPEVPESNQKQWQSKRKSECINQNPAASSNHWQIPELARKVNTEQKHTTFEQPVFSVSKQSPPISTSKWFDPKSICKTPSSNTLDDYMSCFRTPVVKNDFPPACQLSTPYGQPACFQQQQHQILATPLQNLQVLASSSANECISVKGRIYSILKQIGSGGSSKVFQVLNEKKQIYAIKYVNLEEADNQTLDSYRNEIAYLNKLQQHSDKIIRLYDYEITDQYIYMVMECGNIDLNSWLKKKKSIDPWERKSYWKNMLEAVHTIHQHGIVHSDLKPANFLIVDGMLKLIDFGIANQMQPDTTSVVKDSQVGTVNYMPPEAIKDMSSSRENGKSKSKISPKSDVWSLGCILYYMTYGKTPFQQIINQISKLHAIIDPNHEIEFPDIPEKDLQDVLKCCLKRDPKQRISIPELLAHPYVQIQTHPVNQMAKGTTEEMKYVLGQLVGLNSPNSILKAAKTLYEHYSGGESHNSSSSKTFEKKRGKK

[5] = target: Tyrosine-protein kinase Blk (Homo sapiens) (UniProt P51451); test: Residual activity of BLK at 10 uM by microplate scintillation counting
[6] = target: T3, Protein kinase C epsilon type (Homo sapiens) (UniProt Q02156); test: Residual activity of PKCepsilon at 0.1 uM by microplate scintillation counting
T3 sequence (whole entry): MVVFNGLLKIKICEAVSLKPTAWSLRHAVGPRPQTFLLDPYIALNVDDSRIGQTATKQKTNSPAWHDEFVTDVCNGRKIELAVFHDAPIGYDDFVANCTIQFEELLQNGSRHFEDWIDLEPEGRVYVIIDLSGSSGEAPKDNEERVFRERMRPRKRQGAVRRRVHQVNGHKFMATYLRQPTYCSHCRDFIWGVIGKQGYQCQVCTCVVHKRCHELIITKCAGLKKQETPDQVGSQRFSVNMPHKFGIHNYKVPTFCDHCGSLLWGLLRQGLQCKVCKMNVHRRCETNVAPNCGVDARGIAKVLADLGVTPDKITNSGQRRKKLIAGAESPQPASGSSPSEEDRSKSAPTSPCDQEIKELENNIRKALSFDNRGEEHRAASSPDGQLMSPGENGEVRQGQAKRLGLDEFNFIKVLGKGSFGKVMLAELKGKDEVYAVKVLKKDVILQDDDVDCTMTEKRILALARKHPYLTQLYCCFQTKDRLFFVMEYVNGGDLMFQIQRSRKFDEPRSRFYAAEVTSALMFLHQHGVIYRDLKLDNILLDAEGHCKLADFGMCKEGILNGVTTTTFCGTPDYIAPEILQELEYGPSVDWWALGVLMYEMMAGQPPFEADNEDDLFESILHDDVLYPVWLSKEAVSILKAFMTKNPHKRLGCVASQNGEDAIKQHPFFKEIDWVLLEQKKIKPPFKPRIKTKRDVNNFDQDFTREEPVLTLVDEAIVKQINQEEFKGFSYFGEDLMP

[7] = target: Serine/threonine-protein kinase 26 (Homo sapiens) (UniProt Q9P289); test: Residual activity of MST4 at 10 uM by microplate scintillation counting
Serine/threonine-protein kinase 26 (Homo sapiens), sequence (Q9P289 2-416 limits assumed): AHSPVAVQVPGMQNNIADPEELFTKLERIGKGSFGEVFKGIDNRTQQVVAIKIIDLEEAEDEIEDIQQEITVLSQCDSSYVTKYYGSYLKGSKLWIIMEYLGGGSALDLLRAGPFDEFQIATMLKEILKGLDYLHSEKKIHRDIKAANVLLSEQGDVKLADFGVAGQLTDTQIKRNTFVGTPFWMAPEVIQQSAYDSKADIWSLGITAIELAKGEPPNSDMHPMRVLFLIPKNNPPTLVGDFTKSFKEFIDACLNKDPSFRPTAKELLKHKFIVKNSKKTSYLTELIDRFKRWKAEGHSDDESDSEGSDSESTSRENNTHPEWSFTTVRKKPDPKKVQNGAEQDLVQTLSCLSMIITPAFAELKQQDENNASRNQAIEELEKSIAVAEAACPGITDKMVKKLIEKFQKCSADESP

Casein kinase I isoform epsilon (Homo sapiens), sequence (P49674 whole entry, looked up, canonical isoform): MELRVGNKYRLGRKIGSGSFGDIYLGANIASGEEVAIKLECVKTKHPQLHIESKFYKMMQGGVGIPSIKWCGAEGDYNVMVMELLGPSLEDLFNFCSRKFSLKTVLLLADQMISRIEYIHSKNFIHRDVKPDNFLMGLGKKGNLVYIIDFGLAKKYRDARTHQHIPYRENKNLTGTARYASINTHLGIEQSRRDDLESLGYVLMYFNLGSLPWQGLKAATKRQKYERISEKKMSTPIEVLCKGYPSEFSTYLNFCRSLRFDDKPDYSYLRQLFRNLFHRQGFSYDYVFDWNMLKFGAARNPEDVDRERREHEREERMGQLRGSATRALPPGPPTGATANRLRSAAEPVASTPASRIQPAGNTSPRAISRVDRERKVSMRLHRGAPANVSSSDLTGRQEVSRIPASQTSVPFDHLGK
Tyrosine-protein kinase Blk (Homo sapiens), sequence (P51451 2-505 limits assumed): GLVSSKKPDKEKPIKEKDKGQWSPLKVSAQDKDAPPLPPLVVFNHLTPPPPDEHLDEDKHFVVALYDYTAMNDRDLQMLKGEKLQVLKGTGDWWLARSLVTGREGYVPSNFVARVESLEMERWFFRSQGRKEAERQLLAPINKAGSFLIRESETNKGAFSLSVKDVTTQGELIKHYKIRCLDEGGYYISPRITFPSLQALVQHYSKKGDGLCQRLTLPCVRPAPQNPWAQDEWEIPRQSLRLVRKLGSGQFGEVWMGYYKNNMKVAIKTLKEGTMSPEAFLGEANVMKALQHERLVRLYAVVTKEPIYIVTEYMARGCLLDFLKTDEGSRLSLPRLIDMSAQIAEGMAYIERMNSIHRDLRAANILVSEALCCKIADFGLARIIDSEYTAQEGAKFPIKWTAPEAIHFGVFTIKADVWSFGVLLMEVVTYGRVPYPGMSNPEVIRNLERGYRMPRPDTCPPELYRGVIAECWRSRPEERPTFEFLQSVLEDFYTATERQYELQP

| residual activity [1] | residual activity [2] | residual activity [3] | residual activity [4] | residual activity [5] | residual activity [6] | residual activity [7] | Structure (SMILES) |
| --- | --- | --- | --- | --- | --- | --- | --- |
| 107% | 20% | 43% | 99% | 33% | 112% | 85% | COc1cc2c(Oc3ccc(-c4nc5ccccc5s4)cc3)ncnc2cc1OCCCN1CCCC1 |
| 101% | 23% | 31% | 82% | 10% | 108% | 76% | COc1cc2c(Oc3ccc(-c4nc5ccccc5s4)cc3F)ncnc2cc1OCCCN1CCN(C)CC1 |
| 94% | 21% | 44% | 89% | 34% | 106% | 88% | COc1cc2c(Oc3ccc(-c4nc5ccccc5s4)cc3)ncnc2cc1OCCCN1CCN(C)CC1 |
